Where “and” joins values, the source holds several entries; their conditions need not be identical. Equal entries are not always repeated. Ends that are not written are not given here.
Tests used:
human C1q = experiment: Reverse ELISA: inhibition of PAP immune complex binding to C1q coated plates; conditions: for OD 405 nm: PAP pre-incubated with peptide or C1q one hour, C1q coated plates, lower OD = more inhibition, positive control 2.355
Excerpt: (§1) For this reason, a “reverse ELISA” technique has been used to assess binding of the Fc region to ligands that bind to immune complexed IgG Fc. In a reverse ELISA, the enzyme (e.g., HRP) is not covalently conjugated to the Fc portion of the secondary antibody. Rather, a preformed immune complex of peroxidase-rabbit (or mouse) anti-peroxidase IgG (“PAP” complex) is used. […] In the reverse ELISA system, an Fc CH2-CH3 cleft binding ligand (e.g., purified human C1q) was bound to microwell plates. In the absence of competitor, PAP complexes bound to the immobilized ligand and the reaction between HRP and its substrate produces a signal. This signal was reduced by polypeptides and compounds that inhibited PAP binding to the immobilized ligand.
PAP complexes were formed mixing 2 μl of rabbit anti-peroxidase (Sigma Chemicals, St. Louis, Mo.; Cat. No. P7899) with 50 μl of peroxidase (Sigma-Aldrich, Cat. No. P6782) in 1 ml distilled water. PAP (100 μl) were pre-incubated with 100 μl of peptide for one hour, 100 μl were pre-incubated with 100 μl of peptide or human C1q (Quidel Corp., San Diego, Calif.) for one hour. The C1q/PAP and peptide/PAP mixtures (100 μl) were incubated with C1q coated plates for 30 minutes. After washing, plates were incubated with ATBS (Quidel Corp.) for 15 minutes and read at 405 nm.

FcγIIb = experiment: FcγR reverse ELISA: inhibition of PAP immune complex binding (Table 2); conditions: PAP/peptide mixture on FcγR coated plates; positive control 1.394
Excerpt: as §1
(§2) Once the reverse ELISA protocol was established using the C1q assay, the assay was redesigned using FcγIIa, FcγIIb and FcγIII in place of C1q. Highly purified FcγIIa, FcγIIb and FcγIII (R&D Systems, Minneapolis, Minn.) were immunoadsorbed onto plastic microwells. After optimizing the FcγR reverse ELISA system, simple competitive inhibition experiments using polypeptides provided herein were conducted to investigate their ability to inhibit binding of immune complexes to purified FcγR.
(§3) Falcon microtiter plates were coated with 1:10 dilutions of highly purified FcγIIa, FcγIIb and FcγIII and incubated for 24 hours. The plates were washed and then blocked with 5×BSA blocking solution (Alpha Diagnostic International, San Antonio, Tex.) for 24 hours. PAP immune complexes were formed as described in Example 1. PAP (100 μl) were pre-incubated with 100 μl of peptide for one hour. PAP/peptide mixtures were added to the FcγR coated plates and incubated for one hour. After washing, plates were incubated with ABTS substrate (Quidel Corp.) for 15 minutes and read at 405 nm.

FcγIIa (R131 allele) = experiment: as above; conditions: PAP/peptide mixture on FcγR coated plates; positive control 1.599
Excerpt: as §1, §2, §3

FcγIIIa = experiment: as above; conditions: PAP/peptide mixture on FcγR coated plates; positive control 1.588
Excerpt: as §1, §2, §3

mice having induced ITP = experiment: In vivo treatment of ITP induced by rabbit anti-platelet antibody, platelet counting by flow cytometry; set-up: species or system CD-1 mice; conditions: for Platelet counts, individual mice: intraperitoneal, 24 hours; for Platelet counts, mean: 3 mice, ITP alone mean 170.7, Nil 1016; for Effect on induced ITP: first experiment, Table 4, 10× and 100× molar
Protocol: Mice: CD-1 mice approximately 6-8 weeks of age were obtained from Charles River (Montreal). The animals were housed 3-5 per cage in filter-topped cages. The temperature and relative humidity were maintained at […] and 35-70%, respectively, and a 12 hour light/dark cycle was used. The mice were fed rodent chow and water ad libitum.
Anti-platelet antibodies to induce ITP: A rabbit anti-platelet antibody (Inter-Cell Technologies, Inc., Jupiter, Fla.; Cat. No. A31440) was used to induce ITP. Each mouse received 10 μl antibody-containing serum, diluted with 190 μl PBS for injection, such that the final injection volume was 200 μl for all groups injected with anti-platelet antibody.
On the day of use, one vial of rabbit anti-platelet antibody was removed from the freezer, placed in a 22° C. water bath, and shaken. The tube was checked every 30 seconds, and when it was completely thawed it was placed in a microcentrifuge and centrifuged at 10,000×g (11,000 rpm) for 10 minutes at 4° C. The supernatant fluid was transferred to a new tube and the pellet was discarded. The supernatant was placed on ice until used or diluted, as appropriate. Unused portions of the sera were discarded.
Therapeutic treatment of ITP: IVIg was used as a standard control treatment for the ITP induced by the rabbit anti-platelet antibody. The IVIg was Gamimmune® N, 10%. Treatment with IVIg consisted of an intraperitoneal injection of 50 mg (500 μl) IVIg, a dose that was equivalent to a dose of 2,000 mg/kg body weight.
Platelet enumeration: All mice were bled via the saphenous vein. 50 μL of blood were collected into 450 μL PBS/1% EDTA. The blood was further diluted in PBS/1% EDTA. Platelets were enumerated by flow cytometry with a Guava microcapillary cytometer (Guava EasyCyteMini, Guava Technologies, Inc., Hayward, Calif.), using forward scatter (FSC) versus side scatter (SSC) to gate platelets.
Peptides used to inhibit ITP: Peptides having the amino acid sequences set forth in SEQ ID NO:2 ([…]), SEQ ID NO:20 ([…]), and a control peptide in which Trp7, Val13 and Trp14 of SEQ ID NO:20 were replaced by alanines ([…]; SEQ ID NO:57) were tested for their ability to inhibit ITP. Alanine substation of Val13 and Trp14 causes a decrease in binding affinity (measured by ΔΔG, where G=Gibbs Energy) of greater than 1,000 fold.
Peptides were stored at −20° C. until the day of use. On the day of use, peptides were removed from the freezer, placed in a 22° C. water bath, shaken, and checked every 30 seconds for thawing. When thawed, the peptides were placed on ice until use. For samples that received a 10× dose of peptide, the following were sequentially added to a 1.5 ml polypropylene Eppendorf tube: 623 μl PBS (pH 7.22), 35 μL rabbit anti-plaletet IgG, and 42 μl peptide, with mixing after each addition. For samples having a 100× dose of peptide, the following were added sequentially to a 1.5 ml polypropylene Eppendorf tube: 245 μl PBS (pH 7.22), 35 μL rabbit anti-plaletet IgG, and 420 μl peptide, with mixing after each addition. The peptides were incubated for at least 30 minutes at 22° C. prior to injection into mice. (A 15 minute incubation in the laboratory, transport of the mixtures to the Vivarium, and injection took roughly an additional 30 minutes.)
The final volume of each peptide mixture was 700 μL, which was sufficient for injection of 3 mice (200 μl/mouse, plus 100 μl to cover dead volume). For the 10× dose/mouse of peptide, 12 μg of peptide (12 μl of 1 mg/ml solution) was mixed with 100 μg of the rabbit anti-platelet IgG (10 μl of 10 mg/ml solution). The volume of 700 μl was about 3.5× the volume injected per mouse (200 μl). To obtain the dose of peptide and rabbit IgG for the 700 μl final volume, dose of peptide or Rabbit IgG per mouse was multiplied by 3.5 (e.g., 12 μl peptide/mouse×3.5=42 μl, 10 μl Rabbit IgG/mouse×3.5=35 μl). PBS (623 μl, pH 7.22) was added to make up the final volume 700 μl. […]

[1] = target: PAP complex: preformed immune complex of peroxidase and rabbit anti-peroxidase IgG (horseradish) (UniProt P00433); experiment: reverse ELISA competition: PAP pre-incubated with peptide, then on C1q-coated plate; signal is PAP left bound to immobilised human C1q (lower = more inhibition)
Chain of UniProt P00433 (P00433 31-338, one chain of several): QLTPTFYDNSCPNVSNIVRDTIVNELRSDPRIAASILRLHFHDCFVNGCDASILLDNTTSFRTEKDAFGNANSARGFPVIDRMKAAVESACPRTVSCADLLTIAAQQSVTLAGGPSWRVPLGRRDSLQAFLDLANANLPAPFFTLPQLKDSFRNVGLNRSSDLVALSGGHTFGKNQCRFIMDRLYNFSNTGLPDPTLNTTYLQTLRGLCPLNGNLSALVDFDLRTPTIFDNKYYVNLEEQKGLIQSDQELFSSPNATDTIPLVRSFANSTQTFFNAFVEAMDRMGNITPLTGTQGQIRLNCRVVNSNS

[2] = target: PAP complex: preformed immune complex of peroxidase and rabbit anti-peroxidase IgG (horseradish) (UniProt P00433); experiment: reverse ELISA competition: PAP pre-incubated with peptide, then on plate coated with FcγIIa (R131 allele); signal is PAP left bound to the receptor
[3] = target: PAP complex: preformed immune complex of peroxidase and rabbit anti-peroxidase IgG (horseradish) (UniProt P00433); experiment: reverse ELISA competition: PAP pre-incubated with peptide, then on plate coated with FcγIIb; signal is PAP left bound to the receptor
[4] = target: PAP complex: preformed immune complex of peroxidase and rabbit anti-peroxidase IgG (horseradish) (UniProt P00433); experiment: reverse ELISA competition: PAP pre-incubated with peptide, then on plate coated with FcγIIIa; signal is PAP left bound to the receptor
[5] = ITP + 10X molar amount of peptide
[6] = ITP + 100X molar amount of peptide

Molecule	OD 405 nm (human C1q)	OD405 FcγIIb (FcγIIb)	OD405 FcγIIa (R131 allele) (FcγIIa (R131 allele))	OD405 FcγIIIa (FcγIIIa)	OD 405 nm [1]	OD405 [2]	OD405 [3]	OD405 [4]	further results
APPCAFHLGELVWCT (cysteine pairing not given here) [SEQ ID NO:18]	0.983	0.380	0.605	0.880	–	–	–	–	–
APPCARHLGELVWCT (cysteine pairing not given here) [SEQ ID NO:16]	0.567	0.768	0.956	0.709	–	–	–	–	Inhibition of C1q binding (ranking in words) (human C1q; summary of Table 1): next best result
APPCAWHLGELVWCT (cysteine pairing not given here) [SEQ ID NO:14]	1.148	0.562	0.658	0.530	–	–	–	–	–
APPDCAAHLGELAACT [SEQ ID NO:57, reference compound]	–	–	–	–	–	–	–	–	Platelet counts, individual mice (mice having induced ITP; ITP + 10X molar amount of peptide, listed as CP): 1.99e+11 L⁻¹ and 1.91e+11 L⁻¹ and 1.43e+11 L⁻¹; Platelet counts, mean (mice having induced ITP; [5]): 1.777e+11 L⁻¹; Platelet counts, individual mice (mice having induced ITP; ITP + 100X molar amount of peptide, listed as CP): 1.55e+11 L⁻¹ and 1.6e+11 L⁻¹ and 1.79e+11 L⁻¹; Platelet counts, mean (mice having induced ITP; [6]): 1.647e+11 L⁻¹; Effect on induced ITP (mice having induced ITP): no effect
Asp-Cys-Ala-Phe-His-Leu-Gly-Glu-Leu-Val-Trp-Cys-Thr (DCAFHLGELVWCT) [SEQ ID NO:3]	0.859	0.510	0.660	0.810	–	–	–	–	–
Asp-Cys-Ala-Trp-His-Leu-Gly-Glu-Leu-Val-Trp-Cys-Thr [SEQ ID NO:2]	1.100	0.532	0.561	0.741	–	–	–	–	Platelet counts, individual mice (mice having induced ITP; ITP + 10X molar amount of peptide, listed as BP): 1.63e+11 L⁻¹ and 1.17e+11 L⁻¹ and 2.33e+11 L⁻¹; Platelet counts, mean (mice having induced ITP; [5]): 1.71e+11 L⁻¹; Platelet counts, individual mice (mice having induced ITP; ITP + 100X molar amount of peptide, listed as BP): 1.55e+11 L⁻¹ and 1.25e+11 L⁻¹ and 1.94e+11 L⁻¹; Platelet counts, mean (mice having induced ITP; [6]): 1.58e+11 L⁻¹; Effect on induced ITP (mice having induced ITP): no effect
APPCAFHLGELVWCT [Peptide … (SEQ ID NO:18)]	–	–	–	–	0.983 OD 405 nm	0.605 OD405	0.38 OD405	0.88 OD405	–
DCAFHLGELVWCT [Peptide … (SEQ ID NO:3)]	–	–	–	–	0.859 OD 405 nm	0.66 OD405	0.51 OD405	0.81 OD405	–
APPCAWHLGELVWCT [Peptide … (SEQ ID NO:14)]	–	–	–	–	1.15 OD 405 nm	0.658 OD405	0.562 OD405	0.53 OD405	–
APPCARHLGELVWCT [Peptide … (SEQ ID NO:16)]	–	–	–	–	0.567 OD 405 nm	0.956 OD405	0.768 OD405	0.709 OD405	–
